Reference: US20200032313A1 (SANYO CHEMICAL INDUSTRIES, LTD., priority 2017, published 2020)
Read-outs that look alike come from different tables or passages of the source.

Key:
[1] = tested on: luciferase-expressing Saccharomyces cerevisiae; type: cell-based; settings: S. cerevisiae, 8 hours
Method: Transformation was performed using Saccharomyces cerevisiae distributed by Biotechnology Center, National Institute of Technology and Evaluation, whereby luciferase-expressing microorganisms were produced. A vector pYES2 (Thermo Fisher Scientific) was digested with HindIII and XbaI, and a synthetic (synthesized by Thermo Fisher Scientific on commission) a factor-luciferase gene having a HindIII cut site at one end and an XbaI cut site at the other end was inserted into the vector. The microorganisms were transformed by the a factor-luciferase gene-inserted pYES2 according to the method described in an instruction manual of pYES2. The luciferase-expressing microorganisms were inoculated using a platinum loop into YPD broth (yeast extract 1 wt % (Difco), bacto peptone 2 wt % (Difco), and glucose 2 wt %) and were shake-cultured at 200 rpm at 30° C. for 15 hours. Then, the thus-obtained broth was resuspended in 125-ml YPD broth (containing 100 mM potassium hydrogen phosphate buffer; pH: 6) to a final optical density (hereinafter sometimes abbreviated as “OD”) of 0.1 OD/ml.
Further, the resuspended broth was continued to be shake-cultured at 1100 rpm at 30° C. for about 17 hours until OD was 20 to 30. When OD was 20 to 30, the broth was centrifuged (1500 g, 10 min), and resuspended in 125-ml galactose-inducing broth (the YPD broth containing 100 mM potassium phosphate buffer and also containing 2% galactose instead of glucose; pH: 6), followed by culturing at 1100 rpm at 30° C. for 2 hours.
(§1) Subsequently, the surfactant described in Table 1 was added to the broth in the amount (wt %) described in Table 1, and the broth was cultured at 1100 rpm at 30° C. for 8 hours. Subsequently, the broth was sampled for measuring the optical density (optical density at the end of culturing) and for measuring the secretion efficiency. Then, these samples were subjected to centrifugation using a centrifuge to separate bacteria and the supernatant from the broth. Then, the supernatant and the bacteria were collected.
The broth obtained in each of Examples 1 to 22 and Comparative Examples 1 and 2 was 10 to 1000-fold diluted in a 0.2 M Tris-HCl buffer (pH 7.4), and 20 μl of the dilution was mixed with 60 μl of a luciferin solution described below to obtain a sample. The emission intensity of the sample was measured using a luminometer under the following conditions, and the measured emission intensity was substituted into the following formula. The resulting value was regarded as the luciferase activity of the secreted and produced useful substance.
Luminometer: “Glomax Navigator” available from Promega Corporation Luciferin solution: product of New England Biolabs Japan Inc. Measurement temperature: 25° C. Detector: emission detector Detection wavelength: 350 to 700 nm
(Luciferase activity of secreted and produced useful substance)=(Emission intensity)×dilution factor/(optical density at the end of culturing)
The bacteria obtained in each of Examples 1 to 22 and Comparative Examples 1 and 2 were mixed with a 0.2 M Tris-HCl buffer (pH 7.4) in an amount of 200 μl that is equal to the amount of the removed supernatant, followed by centrifugation, whereby the bacteria were washed. The washed bacteria were resuspended in a 0.2 M Tris-HCl buffer (pH 7.4) in an amount of 200 μl that is equal to the amount of the washed supernatant, and 10 to 1000-fold diluted in a 0.2 M Tris-HCl buffer (pH 7.4). The resulting dilution was used as a sample for measuring the luciferase activity on the bacterial surface.
Then, 20 μl of the sample for measuring the luciferase activity on the bacterial surface was mixed with 60 μl of the luciferin solution to obtain a sample. The emission intensity of the sample was measured under the same conditions as for “Measurement of luciferase activity of secreted and produced useful substance”, and the measured emission intensity was substituted into the following formula. […]

[2] = tested on: luciferase-expressing Pichia pastoris; type: cell-based; settings: 8 hours culturing after addition
Method: Transformation was performed using Pichia pastoris distributed by Biotechnology Center, National Institute of Technology and Evaluation, whereby luciferase-expressing microorganisms were produced. A vector pPICZ a (Thermo Fisher Scientific) was digested with XhoI and XbaI, and a synthetic (synthesized by Thermo Fisher Scientific on commission) luciferase gene having an XhoI cut site at one end and an XbaI cut site at the other end was inserted into the vector. The microorganisms were transformed by the luciferase gene-inserted pPICZ a according to the method described in an instruction manual of pPICZ a. The luciferase-expressing microorganisms were inoculated using a platinum loop into BMGY broth, and were shake-cultured at 200 rpm at 30° C. for 15 hours. Then, the thus-obtained broth was resuspended in 125-ml BMGY broth (yeast extract 1 wt % (Difco), bacto peptone 2 wt % (Difco), yeast nitrogen base w/o amino acid 1.34 wt % (Difco), glucose 2 wt %, and 100 mM potassium hydrogen phosphate; pH: 6.0) to a final OD of 0.1 OD/ml. Further, the resuspended broth was continued to be shake-cultured at 1100 rpm at 30° C. for about 17 hours until OD was 20 to 30. When OD was 20 to 30, the broth was centrifuged (1500 g, 10 min), and resuspended in 125-ml BMMY broth, followed by culturing at 1100 rpm at 30° C. for 2 hours.
as §1, with “Two hours later, the surfactant” for “Subsequently, the surfactant”, “in Table 2 was added” for “in Table 1 was added”, “in Table 2, and the” for “in Table 1, and the”
The optical density of the broth containing the microorganisms collected by sampling was measured in a quartz cell (light path of 1 cm) using a spectrophotometer (UV-1700, Shimadzu Corporation).
The broth was centrifuged at 1500 rpm at 4° C. for 5 minutes, and the supernatant was discarded. The precipitate was resuspended in a saline solution in an amount equal to the amount of the sample solution, and was diluted in the saline solution to obtain an appropriate absorbance (0.1 to 0.8). Then, the absorbance at 600 nm was measured. The optical density of the broth was calculated using the following mathematical formula (1).
Broth optical density(OD)=(Absorbance of diluted broth at 600 nm)×dilution factor of broth (Mathematical formula 1)

[3] = surfactant 0.03 wt % of broth, Examples 2, 5-11
[4] = surfactant 0.03 wt % of broth, Examples 13, 16-22

Compound | Secretion efficiency (%) [1, 3] [%] | Optical density (OD) of broth at the end of culturing [2, 4] [OD] | other results
sodium polyoxyethylene (average 3 mol adduct) lauryl ether acetate [Surfactant (A1-2)] | 58 | 29.1 | 
sodium (2-dodecylamino)ethanesulfonate [Surfactant (A3-1)] | 60 | 27.0 | 
CCCCCCCCCCCCCCCCOP(=O)([O-])OCC[N+](C)(C)C [Surfactant (A3-4), miltefosine, reference compound] | 59 | 30.7 | 
CCCCCCCCCCCCNCCC(=O)O | 61 | 21.1 | Secretion efficiency (%) ([1]; surfactant 0.003 wt % of broth, Example 1): 56%; Secretion efficiency (%) ([1]; surfactant 0.3 wt % of broth, Example 3): 65%; Secretion efficiency (%) ([1]; surfactant 3 wt % of broth, Example 4): 75%; Optical density (OD) of broth at the end of culturing ([2]; surfactant 0.003 wt % of broth, Example 12): 22.2 OD; Optical density (OD) of broth at the end of culturing ([2]; surfactant 0.3 wt % of broth, Example 14): 18.1 OD; Optical density (OD) of broth at the end of culturing ([2]; surfactant 3 wt % of broth, Example 15): 10.5 OD
CCCCCCCCCCCC[N+](C)(C)CC(=O)[O-] [Surfactant (A3-5), betaine lauryldimethylaminoacetate] | 56 | 26.1 | 
CCCCCCCCCCCC[N+](C)(C)CCCS(=O)(=O)O.[OH-] [Surfactant (A3-3), dodecyldimethyl(3-sulfopropyl)ammonium hydroxide] | 61 | 27.6 | 
sodium polyoxyethylene (average 2.5 mol adduct) lauryl ether sulfate [Surfactant (A1-1)] | 66 | 26.8 | 
CCCCCCCCCCCC[N+](C)(C)C.[Cl-] [Surfactant (A2-1), lauryl trimethyl ammonium chloride] | 52 | 15.8 | 
